# Results: PubChem BioAssay AID2060491 (Molecular Pharmacology Branch, DTP, NCI, 2025)
# System: 857933-349-R-J2-PDC complex spheroids, viability
# Test: Anticancer human tumor 857933-349-R-J2-PDC patient-derived colon adenocarcinoma cell line growth inhibition [GQUAD]
# Details: for IC50: curve of first compound; for viability, T/C: stronger effect = lower value
# In short: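 Viability of tumor cells grown as complex spheroids with endothelial and stromal cells, exposed to drug combinations. Top concentration at or near clinical Cmax (else 10 microM), diluted in half-log increments.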
# [1] = second compound 0.0316 µM, first compound 0.0316 µM
# [2] = second compound 0.0316 µM, first compound 0.1 µM
# [3] = second compound 0.0316 µM, first compound 0.316 µM
# [4] = second compound 0.0316 µM, first compound 1 µM
# [5] = second compound 0.0316 µM, first compound 3.16 µM
# [6] = second compound 0.0316 µM, first compound 10 µM
# [7] = second compound 0.1 µM, first compound 0.0316 µM
# [8] = second compound 0.1 µM, first compound 0.1 µM
# [9] = second compound 0.1 µM, first compound 0.316 µM
# [10] = second compound 0.1 µM, first compound 1 µM
# [11] = second compound 0.1 µM, first compound 3.16 µM
# [12] = second compound 0.1 µM, first compound 10 µM
# [13] = second compound 0.316 µM, first compound 0.0316 µM
# [14] = second compound 0.316 µM, first compound 0.1 µM
# [15] = second compound 0.316 µM, first compound 0.316 µM
# [16] = second compound 0.316 µM, first compound 1 µM
# [17] = second compound 0.316 µM, first compound 3.16 µM
# [18] = second compound 0.316 µM, first compound 10 µM
# [19] = second compound 1 µM, first compound 0.0316 µM
# [20] = second compound 1 µM, first compound 0.1 µM
# [21] = second compound 1 µM, first compound 0.316 µM
# [22] = second compound 1 µM, first compound 1 µM
# [23] = second compound 1 µM, first compound 3.16 µM
# [24] = second compound 1 µM, first compound 10 µM
# [25] = second compound 3.16 µM, first compound 0.0316 µM
# [26] = second compound 3.16 µM, first compound 0.1 µM
# [27] = second compound 3.16 µM, first compound 0.316 µM
# [28] = second compound 3.16 µM, first compound 1 µM
# [29] = second compound 3.16 µM, first compound 3.16 µM
# [30] = second compound 3.16 µM, first compound 10 µM
# [31] = second compound 10 µM, first compound 0.0316 µM
# [32] = second compound 10 µM, first compound 0.1 µM
# [33] = second compound 10 µM, first compound 0.316 µM
# [34] = second compound 10 µM, first compound 1 µM
# [35] = second compound 10 µM, first compound 3.16 µM
# [36] = second compound 10 µM, first compound 10 µM
# 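Further: spheroids exposed to compounds for one week before readout.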
# 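Wherever viability, T/C is given: percent viability relative to vehicle DMSO wells taken as 100%.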
structure (smiles),measurement,setting,value
Cc1cccc(N(C)C(=O)C2C(O)CCN2c2nc(C)cc(C(F)(F)F)c2C#N)c1 (stereo unspecified) + Cc1cnc(CNC(=O)c2c(=O)c3ccc(N4CCCN(C)CC4)nc3n3c2sc2ccccc23)cn1,IC50,second compound 0.0316 µM,> 10 µM
same,IC50,second compound 0.1 µM,> 10 µM
same,IC50,second compound 0.316 µM,< 0.0316 µM
same,IC50,second compound 1 µM,< 0.0316 µM
same,IC50,second compound 3.16 µM,< 0.0316 µM
same,IC50,second compound 10 µM,< 0.0316 µM
same,"viability, T/C",[1],92%
same,"viability, T/C",[2],88.2%
same,"viability, T/C",[3],94.4%
same,"viability, T/C",[4],82.3%
same,"viability, T/C",[5],95.1%
same,"viability, T/C",[6],77.6%
same,"viability, T/C",[7],70.8%
same,"viability, T/C",[8],73.3%
same,"viability, T/C",[9],62.9%
same,"viability, T/C",[10],58.8%
same,"viability, T/C",[11],74.5%
same,"viability, T/C",[12],64.1%
same,"viability, T/C",[13],24.6%
same,"viability, T/C",[14],29.8%
same,"viability, T/C",[15],27.1%
same,"viability, T/C",[16],23.4%
same,"viability, T/C",[17],24.2%
same,"viability, T/C",[18],22.7%
same,"viability, T/C",[19],4.6%
same,"viability, T/C",[20],7.14%
same,"viability, T/C",[21],5.51%
same,"viability, T/C",[22],4.02%
same,"viability, T/C",[23],4.11%
same,"viability, T/C",[24],3.8%
same,"viability, T/C",[25],2.72%
same,"viability, T/C",[26],2.17%
same,"viability, T/C",[27],1.95%
same,"viability, T/C",[28],2.02%
same,"viability, T/C",[29],2.19%
same,"viability, T/C",[30],1.89%
same,"viability, T/C",[31],2.6%
same,"viability, T/C",[32],2.28%
same,"viability, T/C",[33],2.23%
same,"viability, T/C",[34],1.9%
same,"viability, T/C",[35],1.89%
same,"viability, T/C",[36],0.69%
CC(C)(O)C1CCC(Nc2ccc3ncc(-c4cccc(C(F)(F)F)c4)n3n2)CC1 (stereo unspecified) + Cc1cnc(CNC(=O)c2c(=O)c3ccc(N4CCCN(C)CC4)nc3n3c2sc2ccccc23)cn1,IC50,second compound 0.0316 µM,0.487 µM
same,IC50,second compound 0.1 µM,0.151 µM
same,IC50,second compound 0.316 µM,< 0.0316 µM
same,IC50,second compound 1 µM,< 0.0316 µM
same,IC50,second compound 3.16 µM,< 0.0316 µM
same,IC50,second compound 10 µM,< 0.0316 µM
same,"viability, T/C",[1],86.5%
same,"viability, T/C",[2],76%
same,"viability, T/C",[3],73.6%
same,"viability, T/C",[4],11.1%
same,"viability, T/C",[5],0.4%
same,"viability, T/C",[6],0.23%
same,"viability, T/C",[7],53.4%
same,"viability, T/C",[8],57.2%
same,"viability, T/C",[9],41.4%
same,"viability, T/C",[10],14%
same,"viability, T/C",[11],0.2%
same,"viability, T/C",[12],0.19%
same,"viability, T/C",[13],16.1%
same,"viability, T/C",[14],12.6%
same,"viability, T/C",[15],8.9%
same,"viability, T/C",[16],7.61%
same,"viability, T/C",[17],0.11%
same,"viability, T/C",[18],0.07%
same,"viability, T/C",[19],3.09%
same,"viability, T/C",[20],3%
same,"viability, T/C",[21],2.95%
same,"viability, T/C",[22],3.84%
same,"viability, T/C",[23],0.05%
same,"viability, T/C",[24],0.07%
same,"viability, T/C",[25],1.54%
same,"viability, T/C",[26],1.85%
same,"viability, T/C",[27],2.05%
same,"viability, T/C",[28],1.16%
same,"viability, T/C",[29],0.11%
same,"viability, T/C",[30],0.12%
same,"viability, T/C",[31],0.23%
same,"viability, T/C",[32],0.19%
same,"viability, T/C",[33],0.3%
same,"viability, T/C",[34],0.28%
same,"viability, T/C",[35],0.22%
same,"viability, T/C",[36],0.21%
O=C(NO)c1cnc(N2CCN(S(=O)(=O)c3ccc4ccccc4c3)CC2)nc1 + CN(C)c1ccc(Nc2c3ccc(NC(=O)CCN4CCCC4)cc3nc3cc(NC(=O)CCN4CCCC4)ccc23)cc1,IC50,second compound 0.0316 µM,1.48 µM
same,IC50,second compound 0.1 µM,1.51 µM
same,IC50,second compound 0.316 µM,1.31 µM
same,IC50,second compound 1 µM,1.23 µM
same,IC50,second compound 3.16 µM,1.13 µM
same,IC50,second compound 10 µM,0.658 µM
same,"viability, T/C",[1],106%
same,"viability, T/C",[2],100%
same,"viability, T/C",[3],101%
same,"viability, T/C",[4],75.1%
same,"viability, T/C",[5],0.74%
same,"viability, T/C",[6],0.27%
same,"viability, T/C",[7],101%
same,"viability, T/C",[8],99.3%
same,"viability, T/C",[9],93.8%
same,"viability, T/C",[10],77.1%
same,"viability, T/C",[11],0.65%
same,"viability, T/C",[12],0.57%
same,"viability, T/C",[13],101%
same,"viability, T/C",[14],100%
same,"viability, T/C",[15],93%
same,"viability, T/C",[16],64.9%
same,"viability, T/C",[17],1.11%
same,"viability, T/C",[18],0.38%
same,"viability, T/C",[19],97.2%
same,"viability, T/C",[20],97%
same,"viability, T/C",[21],92.9%
same,"viability, T/C",[22],60.7%
same,"viability, T/C",[23],0.83%
same,"viability, T/C",[24],0.36%
same,"viability, T/C",[25],89%
same,"viability, T/C",[26],80.1%
same,"viability, T/C",[27],92.4%
same,"viability, T/C",[28],55.7%
same,"viability, T/C",[29],1%
same,"viability, T/C",[30],0.3%
same,"viability, T/C",[31],66.2%
same,"viability, T/C",[32],68.2%
same,"viability, T/C",[33],68.5%
same,"viability, T/C",[34],40%
same,"viability, T/C",[35],0.55%
same,"viability, T/C",[36],0.71%
